Source: patent US20240239861A1, “GLUCAGON-RECEPTOR SELECTIVE POLYPEPTIDES AND METHODS OF USE THEREOF” (i2O Therapeutics, Inc., priority 2016, published 2024)
pEC50: −log10 of the molar value. Read-outs that look alike come from different tables or passages of the source. *1 amine or outer side, *2 acyl side, *3 side chain or, on linkers, in order; H or OH if unused. Where a SMILES comes first, the peptide text is derived from it. Side-chain parts run from the residue outwards. [ ]: non-standard residue; d: D form. The star is where a group is joined. γGlu = O=C(O)[C@H](CCC(=O)[*:2])N[*:1]; Palmitoyl = CCCCCCCCCCCCCCCC(=O)*; Aib = CC(C)(N)C(=O)O

Tests used:
human GLP-1R = human GLP-1R (Homo sapiens, UniProt P43220); assay: Peptide-receptor mediated cAMP accumulation (LANCE Ultra cAMP) in CHO-K1 cells transfected with human GLP-1R; format: cell-based; conditions: for pEC50: hGLP1 pEC50 (cAMP mean (n = 3): 11 point curve starting at 1 nM, Table 3)
in vivo = conditions: male, rat
Method: Peptides were formulated in sterile saline and administered as a 3-hour intravenous infusion to non-fasted male Wistar Han or Sprague-Dawley rats (n=3 per group) via jugular vein cannula at a final dose of 0.3 or 0.1 mg/kg. […] Plasma was prepared by centrifugation and stored at −80° C. until analysis.
Protein Precipitation: All 96-well plates were coated with a blocking agent to mitigate non-specific binding of peptides. Plasma samples (75 uL) were added to a 96-well plate containing 200 uL of 2:1 ethanol:acetonitrile containing 0.1% TFA and mixed well via aspiration. Plates were capped, vortex-mixed and centrifuged. Supernatants (215 uL) were transferred to a clean 96-well plate, evaporated to dryness under nitrogen flow and then reconstituted in 75 μL of 20% acetonitrile in water containing 0.10% formic acid.
Solid-Phase Extraction: Samples were diluted 3-fold with 5% NH4OH (aq) and loaded onto an Oasis MAX microElution plate (Waters Corp, Milford, MA) that had been pre-conditioned with 200 uL each of methanol and 5% NH4OH (aq). The plate was washed with 200 uL 5% NH4OH (aq), followed by 200 uL 20% acetonitrile in water. […] Samples were reconstituted in 80 uL 0.1% formic acid in water.
All calibration standards were prepared in control rat plasma containing K2EDTA and protease inhibitor cocktail. […] Samples were injected onto a 2.1×50 mm reverse phase C18 analytical column, typically a Waters ACQUITY UPLC™ HSS T3, 1.8 μm (Waters Corporation, Milford, MA) or similar. […] Typical flow rates were 600 L/min. The column temperature was held constant at 40 or 45° C. Peptides were quantified my monitoring one or more product ions produced from a multiply charged parent ion.

human GCGR = human GCGR (Homo sapiens, UniProt P47871); assay: Peptide-receptor mediated cAMP accumulation (LANCE Ultra cAMP) in CHO-K1 cells transfected with human GCGR; format: cell-based; conditions: read-out: GluR pEC50 (converted)
Sequence of human GCGR (P47871 26-477): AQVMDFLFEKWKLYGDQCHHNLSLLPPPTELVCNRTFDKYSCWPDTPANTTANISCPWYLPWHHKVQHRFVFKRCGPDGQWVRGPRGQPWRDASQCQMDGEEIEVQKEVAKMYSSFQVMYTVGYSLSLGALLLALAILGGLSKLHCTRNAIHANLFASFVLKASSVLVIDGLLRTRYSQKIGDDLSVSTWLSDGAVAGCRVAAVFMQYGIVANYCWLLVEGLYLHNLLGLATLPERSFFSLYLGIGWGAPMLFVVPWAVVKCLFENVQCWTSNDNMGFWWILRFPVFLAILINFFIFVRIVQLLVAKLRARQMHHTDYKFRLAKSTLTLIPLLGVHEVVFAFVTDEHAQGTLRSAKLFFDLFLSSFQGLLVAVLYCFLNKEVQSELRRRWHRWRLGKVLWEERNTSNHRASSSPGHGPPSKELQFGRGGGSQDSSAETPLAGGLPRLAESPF

Sequence of human GLP-1R (P43220 24-463): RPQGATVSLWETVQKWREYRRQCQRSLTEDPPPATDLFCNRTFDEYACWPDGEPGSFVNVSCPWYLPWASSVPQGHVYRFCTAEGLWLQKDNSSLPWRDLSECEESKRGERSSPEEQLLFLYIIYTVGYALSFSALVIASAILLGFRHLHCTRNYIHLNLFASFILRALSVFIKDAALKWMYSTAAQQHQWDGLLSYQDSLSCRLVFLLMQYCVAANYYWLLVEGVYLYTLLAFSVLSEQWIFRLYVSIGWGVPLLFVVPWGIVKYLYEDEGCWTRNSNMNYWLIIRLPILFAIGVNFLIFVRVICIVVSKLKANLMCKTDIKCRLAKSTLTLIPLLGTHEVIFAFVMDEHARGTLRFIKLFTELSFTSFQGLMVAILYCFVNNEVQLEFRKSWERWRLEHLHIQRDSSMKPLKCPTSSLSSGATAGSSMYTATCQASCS

Row | Compound | pEC50 (human GLP-1R) | clearance (in vivo) | EC50 (human GCGR) | EC50 (human GLP-1R; Table 7, GLP-1R, read-out: GLP-1R pEC50 (converted))
1 | CC(C)C[C@H](NC(=O)[C@H](Cc1ccc(O)cc1)NC(=O)[C@H](CCCCN)NC(=O)[C@H](CO)NC(=O)[C@H](Cc1ccc(O)cc1)NC(=O)[C@H](CC(=O)O)NC(=O)[C@H](CO)NC(=O)[C@@H](NC(=O)[C@H](Cc1ccccc1)NC(=O)[C@@H](NC(=O)CNC(=O)[C@H](Cc1c[nH]cn1)NC(=O)[C@H](CO)NC(=O)[C@@H](N)Cc1ccc(O)cc1)[C@@H](C)O)[C@@H](C)O)C(=O)N[C@@H](CC(=O)O)C(=O)NC(C)(C)C(=O)N[C@@H](CCCCN)C(=O)N[C@@H](CCCNC(=N)N)C(=O)N[C@@H](C)C(=O)N[C@@H](CCC(N)=O)C(=O)N[C@@H](CCC(=O)O)C(=O)N[C@@H](Cc1ccccc1)C(=O)N[C@H](C(=O)NC(C)(C)C(=O)N[C@@H](Cc1c[nH]c2ccccc12)C(=O)N[C@@H](CC(C)C)C(=O)N[C@@H](CCC(=O)O)C(=O)N[C@@H](CC(=O)O)C(=O)N[C@@H](CCC(=O)O)C(=O)N1CCC[C@H]1C(=O)N[C@@H](CO)C(=O)N[C@@H](CO)C(=O)NCC(=O)N[C@@H](C)C(=O)N1CCC[C@H]1C(=O)N1CCC[C@H]1C(=O)N1CCC[C@H]1C(=O)N[C@@H](CO)C(N)=O)C(C)C [Compound A8] (H-YSHGTFTSDYSKYLD[Aib]KRAQEFV[Aib]WLEDEPSSGAPPPS-NH2; N-terminus assumed) | < 9.00 | 17 mL/min/kg |  | 
2 | CC(C)C[C@H](NC(=O)[C@H](Cc1ccc(O)cc1)NC(=O)[C@H](CCCCN)NC(=O)[C@H](CO)NC(=O)[C@H](Cc1ccc(O)cc1)NC(=O)[C@H](CC(=O)O)NC(=O)[C@H](CO)NC(=O)[C@@H](NC(=O)[C@H](Cc1ccccc1)NC(=O)[C@@H](NC(=O)CNC(=O)[C@H](Cc1c[nH]cn1)NC(=O)[C@H](CO)NC(=O)[C@@H](N)Cc1ccc(O)cc1)[C@@H](C)O)[C@@H](C)O)C(=O)N[C@@H](CC(=O)O)C(=O)NC(C)(C)C(=O)N[C@@H](CCCCN)C(=O)N[C@@H](CCCNC(=N)N)C(=O)N[C@@H](C)C(=O)N[C@@H](CCC(N)=O)C(=O)N[C@@H](CCC(=O)O)C(=O)N[C@@H](Cc1ccccc1)C(=O)N[C@H](C(=O)NC(C)(C)C(=O)N[C@@H](Cc1c[nH]c2ccccc12)C(=O)N[C@@H](CC(C)C)C(=O)N[C@@H](CCC(=O)O)C(=O)N[C@@H](CC(=O)O)C(=O)N[C@@H](CCC(=O)O)C(=O)N1CCC[C@H]1C(=O)N[C@@H](CO)C(=O)N[C@@H](CO)C(=O)NCC(=O)N[C@@H](CCCCN)C(=O)N1CCC[C@H]1C(=O)N1CCC[C@H]1C(=O)N1CCC[C@H]1C(=O)N[C@@H](CO)C(=O)O)C(C)C [Compound A20] (H-YSHGTFTSDYSKYLD[Aib]KRAQEFV[Aib]WLEDEPSSGKPPPS-OH; N-terminus assumed) | < 9.00 | 15 mL/min/kg |  | 
3 | CC(C)C[C@H](NC(=O)[C@H](Cc1ccc(O)cc1)NC(=O)[C@H](CCCCN)NC(=O)[C@H](CO)NC(=O)[C@H](Cc1ccc(O)cc1)NC(=O)[C@H](CC(=O)O)NC(=O)[C@H](CO)NC(=O)[C@@H](NC(=O)[C@H](Cc1ccccc1)NC(=O)[C@@H](NC(=O)CNC(=O)[C@H](Cc1c[nH]cn1)NC(=O)[C@H](CO)NC(=O)[C@@H](N)Cc1ccc(O)cc1)[C@@H](C)O)[C@@H](C)O)C(=O)N[C@@H](CC(=O)O)C(=O)NC(C)(C)C(=O)N[C@@H](CCCCN)C(=O)N[C@@H](CCCNC(=N)N)C(=O)N[C@@H](C)C(=O)N[C@@H](CCC(N)=O)C(=O)N[C@@H](CCC(=O)O)C(=O)N[C@@H](Cc1ccccc1)C(=O)N[C@H](C(=O)NC(C)(C)C(=O)N[C@@H](Cc1c[nH]c2ccccc12)C(=O)N[C@@H](CC(C)C)C(=O)N[C@@H](CCC(=O)O)C(=O)N[C@@H](CC(=O)O)C(=O)N[C@@H](CCC(=O)O)C(=O)NCC(=O)N1CCC[C@H]1C(=O)N[C@@H](CO)C(=O)N[C@@H](CO)C(=O)NCC(=O)N[C@@H](C)C(=O)N1CCC[C@H]1C(=O)N1CCC[C@H]1C(=O)N1CCC[C@H]1C(=O)N[C@@H](CO)C(=O)O)C(C)C [Compound A28] (H-YSHGTFTSDYSKYLD[Aib]KRAQEFV[Aib]WLEDEGPSSGAPPPS-OH) | < 9.00 | 34.7 mL/min/kg |  | 
4 | CC(C)C[C@H](NC(=O)[C@H](Cc1c[nH]c2ccccc12)NC(=O)[C@H](CCCCN)NC(=O)[C@H](CO)NC(=O)[C@H](Cc1ccc(O)cc1)NC(=O)[C@H](CC(=O)O)NC(=O)[C@H](CO)NC(=O)[C@@H](NC(=O)[C@H](Cc1ccccc1)NC(=O)[C@@H](NC(=O)CNC(=O)[C@H](Cc1c[nH]cn1)NC(=O)[C@@H](NC(=O)[C@@H](N)Cc1ccc(O)cc1)[C@@H](C)O)[C@@H](C)O)[C@@H](C)O)C(=O)N[C@@H](CC(=O)O)C(=O)NC(C)(C)C(=O)N[C@@H](C)C(=O)N[C@@H](CCCNC(=N)N)C(=O)N[C@@H](C)C(=O)N[C@@H](CCC(N)=O)C(=O)N[C@@H](CCC(=O)O)C(=O)N[C@@H](Cc1ccccc1)C(=O)N[C@H](C(=O)NC(C)(C)C(=O)N[C@@H](Cc1c[nH]c2ccccc12)C(=O)N[C@@H](CC(C)C)C(=O)N[C@@H](CCC(=O)O)C(=O)N[C@@H](CC(=O)O)C(=O)N[C@@H](CCC(=O)O)C(=O)N1CCC[C@H]1C(=O)N[C@@H](CO)C(=O)N[C@@H](CO)C(=O)NCC(=O)N[C@@H](C)C(=O)N1CCC[C@H]1C(=O)N1CCC[C@H]1C(=O)N1CCC[C@H]1C(=O)N[C@@H](CO)C(=O)O)C(C)C [Compound A35] (H-YTHGTFTSDYSKWLD[Aib]ARAQEFV[Aib]WLEDEPSSGAPPPS-OH; N-terminus assumed) | < 9.00 | 30.1 mL/min/kg |  | 
5 | CC(C)C[C@H](NC(=O)[C@H](Cc1ccc(O)cc1)NC(=O)[C@H](CCCCN)NC(=O)[C@H](CO)NC(=O)[C@H](Cc1ccc(O)cc1)NC(=O)[C@H](CC(=O)O)NC(=O)[C@H](CO)NC(=O)[C@@H](NC(=O)[C@H](Cc1ccccc1)NC(=O)[C@@H](NC(=O)CNC(=O)[C@H](Cc1c[nH]cn1)NC(=O)[C@H](CO)NC(=O)[C@@H](N)Cc1ccc(O)cc1)[C@@H](C)O)[C@@H](C)O)C(=O)N[C@@H](CC(=O)O)C(=O)NC(C)(C)C(=O)N[C@@H](CCCCN)C(=O)N[C@@H](CCCNC(=N)N)C(=O)N[C@@H](C)C(=O)N[C@@H](CCC(N)=O)C(=O)N[C@@H](CCC(=O)O)C(=O)N[C@@H](Cc1ccccc1)C(=O)N[C@H](C(=O)NC(C)(C)C(=O)N[C@@H](Cc1c[nH]c2ccccc12)C(=O)N[C@@H](CC(C)C)C(=O)N[C@@H](CCC(=O)O)C(=O)N[C@@H](CC(=O)O)C(=O)N[C@@H](CCC(=O)O)C(=O)N[C@@H](CCCCN)C(=O)N[C@@H](CCCNC(=N)N)C(=O)N[C@@H](CC(N)=O)C(=O)N[C@@H](CCCCN)C(=O)N[C@@H](CC(N)=O)C(=O)N1CCC[C@H]1C(=O)N1CCC[C@H]1C(=O)N1CCC[C@H]1C(=O)N[C@@H](CO)C(=O)O)C(C)C [Compound A48] (H-YSHGTFTSDYSKYLD[Aib]KRAQEFV[Aib]WLEDEKRNKNPPPS-OH; N-terminus assumed) | < 9.00 | 37 mL/min/kg |  | 
6 | CC[C@H](C)[C@H](NC(=O)[C@H](CC(=O)O)NC(=O)[C@H](CC(C)C)NC(=O)[C@H](Cc1ccc(O)cc1)NC(=O)[C@H](CCCCN)NC(=O)[C@H](CO)NC(=O)[C@H](Cc1ccc(O)cc1)NC(=O)[C@H](CC(=O)O)NC(=O)[C@H](CO)NC(=O)[C@@H](NC(=O)[C@H](Cc1ccccc1)NC(=O)[C@@H](NC(=O)CNC(=O)[C@H](Cc1c[nH]cn1)NC(=O)[C@H](CO)NC(=O)[C@@H](N)Cc1ccc(O)cc1)[C@@H](C)O)[C@@H](C)O)C(=O)N[C@@H](CCCCN)C(=O)N[C@@H](CCCNC(=N)N)C(=O)N[C@@H](C)C(=O)N[C@@H](CCC(N)=O)C(=O)N[C@@H](CCC(=O)O)C(=O)N[C@@H](Cc1ccccc1)C(=O)N[C@H](C(=O)NC(C)(C)C(=O)N[C@@H](Cc1c[nH]c2ccccc12)C(=O)N[C@@H](CC(C)C)C(=O)N[C@@H](CCC(=O)O)C(=O)N[C@@H](CC(=O)O)C(=O)N[C@@H](CCC(=O)O)C(=O)N1CCC[C@H]1C(=O)N[C@@H](CO)C(=O)N[C@@H](CO)C(=O)NCC(=O)N[C@@H](C)C(=O)N1CCC[C@H]1C(=O)N1CCC[C@H]1C(=O)N1CCC[C@H]1C(=O)N[C@@H](CO)C(=O)O)C(C)C [Compound A52] (H-YSHGTFTSDYSKYLDIKRAQEFV[Aib]WLEDEPSSGAPPPS-OH) | < 9.00 | 29 mL/min/kg |  | 
7 | CCCCCCCCCCCCCCCC(=O)N[C@@H](CCC(=O)NCCCC[C@H](NC(=O)[C@H](CC(=O)O)NC(=O)[C@H](CO)NC(=O)[C@@H](NC(=O)[C@H](Cc1ccccc1)NC(=O)[C@@H](NC(=O)CNC(=O)[C@H](Cc1c[nH]cn1)NC(=O)[C@H](CO)NC(=O)[C@@H](N)Cc1ccc(O)cc1)[C@@H](C)O)[C@@H](C)O)C(=O)N[C@@H](CO)C(=O)N[C@@H](CCCCN)C(=O)N[C@@H](Cc1ccc(O)cc1)C(=O)N[C@@H](CC(C)C)C(=O)N[C@@H](CC(=O)O)C(=O)N[C@@H](CO)C(=O)N[C@@H](C)C(=O)N[C@@H](CCCNC(=N)N)C(=O)N[C@@H](C)C(=O)N[C@@H](CCC(N)=O)C(=O)N[C@@H](CCC(=O)O)C(=O)N[C@@H](Cc1ccccc1)C(=O)N[C@H](C(=O)N[C@@H](CCCCN)C(=O)N[C@@H](Cc1c[nH]c2ccccc12)C(=O)N[C@@H](CC(C)C)C(=O)N[C@@H](CCC(=O)O)C(=O)N[C@@H](CC(=O)O)C(=O)N[C@@H](CCC(=O)O)C(=O)N1CCC[C@H]1C(=O)N[C@@H](CO)C(=O)N[C@@H](CO)C(=O)NCC(=O)N[C@@H](C)C(=O)N1CCC[C@H]1C(=O)N1CCC[C@H]1C(=O)N1CCC[C@H]1C(=O)N[C@@H](CO)C(N)=O)C(C)C)C(=O)O [Compound B44] (H-YSHGTFTSDK([γGlu-Palmitoyl])SKYLDSARAQEFVKWLEDEPSSGAPPPS-NH2) |  |  | 0.00126 nM | 63.1 nM
